Assays:
human white blood cells = assay: Induced cytokine release from stimulated human white blood cells (overall conclusion); format: cell-based; conditions: PHA 5 μg/ml, 16 hours; conclusion in words
Protocol: The objective of this study was to assess the ability of norketotifen to inhibit induced cytokine release from stimulated human white blood cells.
The study was conducted in two phases. The first phase included optimization of the test methodology and including dose-range finding studies, using buffy coats from 3 human donors, stimulated with phytohemagglutinin (PHA). Following optimization of the test conditions, a final protocol was issued. In the following Main Study, white blood cells (buffy coats) from 5 healthy human donors were stimulated with PHA, 5 μg/ml. The concentrations of the test article and the duration of exposure were optimized to obtain acceptable dose-response ratios. Thus, the inhibitory effects of three concentrations of NK and one concentration of ketotifen were evaluated in the Main Study. The buffy coats containing white blood cells from 5 male human donors were resuspended in assay media and were pre-incubated for 30 min with either vehicle/saline, ketotifen 10 μM ([…]) or norketotifen 1 μM and 10 μM and 100 μM, corresponding to 0.411 μg/ml, 4.11 μg/ml and 41.1 μg/ml, resp. Following these preincubations, the white blood cells were stimulated for 16 hours with PHA, 5 μg/ml. The cell system supernatants were then harvested and stored frozen pending analyses. […]

[1] = Preclinical studies of immune-suppressive effects; conditions: compared with the steroids
Description: Norketotifen is thus particularly useful in the treatment of diseases treatable with the TNFα blocking agents adalimumab (Humira®), infliximab (Remicade®, Inflectra®), certolizumab pegol (Cimzia®), golimumab (Simponi®) and enteracept (Enbrel®); the IL-4 and IL-13 inhibitors dupilumab (Dupixent®), pascolizumab, pitrakinra, and lebrikizumab, anrukinzumab, and tralokinumab; and the IL-5 inhibitors mepolizumab, reslizumab and benralizumab. Advantageously, norketotifen is a small molecule and oral and parenteral administration of norketotifen can provide for convenience and significant cost savings.

mouse = mouse model of sedation; U.S. Pat. Nos. 7,226,934 and 7,557,128; cited from earlier work

| Compound | Inhibition of the release of cytokines from human white blood cells (human white blood cells) | Adverse immune-suppressive effects [1] | Sedative effects (mouse) |
| --- | --- | --- | --- |
| O=C1Cc2ccccc2C(=C2CCNCC2)c2ccsc21 (racemic) [Norketotifen, norketotifen] | potently and dose-dependently inhibited | free from the adverse immune-suppressive effects |  |
| CN1CCC(=C2c3ccccc3CC(=O)c3sccc32)CC1 [Ketotifen, ketotifen, reference compound] | No statistically significant inhibition |  |  |
| O=C(O)/C=C/C(=O)O.O=C1Cc2ccccc2C(=C2CCNCC2)c2ccsc21 [R-isomer, R-norketotifen] |  |  | sedative effects were attributed to the R-isomer |

From patent US20210267960A1, “METHODS OF TREATMENT OF INFLAMMATORY CYTOKINE-RELATED ARTHRITIC DISORDERS” (Bridge Pharma Inc., priority 2020, published 2021)
